ChEMBL document CHEMBL1201862, “PubChem BioAssay data set” (2004)
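How tested: cells in 96-well plates exposed to compound for 48 hours at five concentrations. Here, GI50 denotes the concentration required for 50% inhibition of growth.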 The source made the active and inactive calls. Rule as the data show it: active = GI50 up to about 1.1 µM and inactive = higher.

What was measured:
Test in all cases: growth of human tumour cells (NCI), 48 h
MDA-MB-231 = tested on: MDA-MB-231
OVCAR-8 = tested on: OVCAR-8
SNB-75 = tested on: SNB-75
RXF 393 = tested on: RXF 393
IGROV-1 = tested on: IGROV-1
Hs-578T = tested on: Hs-578T
TK-10 = tested on: TK-10
MDA-MB-435 = tested on: MDA-MB-435
DU-145 = tested on: DU-145
Malme-3M = tested on: Malme-3M
OVCAR-3 = tested on: OVCAR-3
HL-60 = tested on: HL-60
CCRF-CEM = tested on: CCRF-CEM
KM12 = tested on: KM12
LOX IMVI = tested on: LOX IMVI
COLO 205 = tested on: COLO 205
NCI-H226 = tested on: NCI-H226
OVCAR-5 = tested on: OVCAR-5
SK-OV-3 = tested on: SK-OV-3
T47D = tested on: T47D

Row | SMILES | GI50 (MDA-MB-231) | GI50 (OVCAR-8) | GI50 (SNB-75) | GI50 (RXF 393) | GI50 (IGROV-1) | GI50 (Hs-578T) | GI50 (TK-10) | GI50 (MDA-MB-435) | GI50 (DU-145) | GI50 (Malme-3M) | GI50 (OVCAR-3) | GI50 (HL-60) | GI50 (CCRF-CEM) | GI50 (KM12) | GI50 (LOX IMVI) | GI50 (COLO 205) | GI50 (NCI-H226) | GI50 (OVCAR-5) | GI50 (SK-OV-3) | GI50 (T47D)
1 | CN(C)C(=S)NC(=S)Nc1ccc2ccccc2c1 | 20 µM (inactive) | 9.64 µM (inactive) | 24.3 µM (inactive) | 18.4 µM (inactive) | 14.4 µM (inactive) | 33.1 µM (inactive) | 22.7 µM (inactive) | 18.8 µM (inactive) | 18.2 µM (inactive) | 13.8 µM (inactive) | 14.4 µM (inactive) | 5.69 µM (inactive) | 0.804 µM (active) | 12.4 µM (inactive) | 6.64 µM (inactive) | 13.7 µM (inactive) | 12.1 µM (inactive) | 21.2 µM (inactive) | 24.8 µM (inactive) | 9.55 µM (inactive)
2 | CC(C)=CCNc1ncnc2c1c(C#N)cn2C1OC(CO)C(O)C1O (stereo not given) | 33.7 µM (inactive) | 50.7 µM (inactive) | 75.7 µM (inactive) | 71.1 µM (inactive) | 0.431 µM (active) | 56.9 µM (inactive) | 1.21 µM (inactive) | 31.1 µM (inactive) | 10.9 µM (inactive) | > 77.6 µM (inactive) | 3.66 µM (inactive) | 9.12 µM (inactive) | 3.85 µM (inactive) | 1.36 µM (inactive) | > 79.8 µM (inactive) | 0.716 µM (active) | 39.2 µM (inactive) | > 66.2 µM (inactive) | 16.9 µM (inactive) | 0.0386 µM (active)
3 | O=C1CC(NC2CC(=O)c3c(Br)sc(Br)c32)c2c(Br)sc(Br)c21 (stereo not given) | 3.42 µM (inactive) | 3.26 µM (inactive) | 15.7 µM (inactive) | 3.38 µM (inactive) | 2.99 µM (inactive) | 4.91 µM (inactive) | 2.88 µM (inactive) | 3.72 µM (inactive) | 4.58 µM (inactive) | 2.29 µM (inactive) | 4.44 µM (inactive) | 2.46 µM (inactive) | 0.998 µM (active) | 1.99 µM (inactive) | 1.92 µM (inactive) | 3.04 µM (inactive) | 17.4 µM (inactive) | 20.2 µM (inactive) | 17.8 µM (inactive) | 2.46 µM (inactive)
4 | Cc1ccc(/N=C2N=C(Cl)/C(=C\c3ccco3)N\2)cc1 | > 100 µM (inactive) | > 100 µM (inactive) | > 100 µM (inactive) | > 100 µM (inactive) | > 100 µM (inactive) | > 100 µM (inactive) | > 100 µM (inactive) | > 100 µM (inactive) | > 100 µM (inactive) | > 100 µM (inactive) | > 100 µM (inactive) | > 100 µM (inactive) | > 100 µM (inactive) | > 100 µM (inactive) | > 100 µM (inactive) | > 100 µM (inactive) | > 100 µM (inactive) | > 100 µM (inactive) | > 100 µM (inactive) | > 100 µM (inactive)
5 | CC1(C)N[PH]2(Nc3ccccc3O2)OC1=O | > 100 µM (inactive) | 82.8 µM (inactive) | > 100 µM (inactive) | > 100 µM (inactive) | > 100 µM (inactive) | > 100 µM (inactive) | 68.2 µM (inactive) | 16.4 µM (inactive) | > 100 µM (inactive) | 38.4 µM (inactive) | > 100 µM (inactive) | 44.3 µM (inactive) | 41.2 µM (inactive) | > 100 µM (inactive) | 18.3 µM (inactive) | 17.8 µM (inactive) | 35.9 µM (inactive) | > 100 µM (inactive) | > 100 µM (inactive) | > 100 µM (inactive)
6 | C/N=c1\sc2nc(C#N)c(C#N)nc2n1C | 40.1 µM (inactive) | > 10 µM (inactive) | 19 µM (inactive) | 18.7 µM (inactive) | 25.2 µM (inactive) | 31.1 µM (inactive) | 25.5 µM (inactive) | 21 µM (inactive) | 36.6 µM (inactive) | 17.6 µM (inactive) | 24.5 µM (inactive) | 10.9 µM (inactive) | 19.7 µM (inactive) | 27.5 µM (inactive) | 17.8 µM (inactive) | 16.4 µM (inactive) | 16.2 µM (inactive) | 19.2 µM (inactive) | 28 µM (inactive) | 34 µM (inactive)
7 | COc1cccc2c1C(=O)c1ccc3cc(CCl)cc(O)c3c1C2=O | 0.205 µM (active) | 0.228 µM (active) | 0.94 µM (active) | 0.244 µM (active) | 1.03 µM (active) | 0.362 µM (active) | 0.238 µM (active) | 0.198 µM (active) | 0.762 µM (active) | 0.188 µM (active) | 0.243 µM (active) | 0.21 µM (active) | 0.309 µM (active) | 0.0605 µM (active) | 0.158 µM (active) | 0.203 µM (active) | 0.869 µM (active) | 0.157 µM (active) | 1.19 µM (inactive) | 1.2 µM (inactive)
8 | CCOC(=O)/C=C(/C(=O)OCC)n1ccc(=O)n(Cc2cnnn2COCCOC(C)=O)c1=O | 18.6 µM (inactive) | 16.6 µM (inactive) | 41.2 µM (inactive) | 15.4 µM (inactive) | 17.9 µM (inactive) | 21 µM (inactive) | 7.26 µM (inactive) | 16.6 µM (inactive) | 20.7 µM (inactive) | 12.5 µM (inactive) | 14.9 µM (inactive) | 0.018 µM (active) | 0.713 µM (active) | 28.6 µM (inactive) | 17.1 µM (inactive) | 2.92 µM (inactive) | 24.3 µM (inactive) | 18.2 µM (inactive) | > 100 µM (inactive) | 9.57 µM (inactive)
9 | CC1=NN(c2nc(N)nc(/C(C#N)=C/c3cccn3-c3cc(Cl)cc(Cl)c3)n2)C(C)(C)C1 | 41.2 µM (inactive) | 12 µM (inactive) | 17 µM (inactive) | > 100 µM (inactive) | > 100 µM (inactive) | 32.9 µM (inactive) | > 100 µM (inactive) | > 100 µM (inactive) | > 100 µM (inactive) | > 100 µM (inactive) | > 100 µM (inactive) | 14.8 µM (inactive) | 4.47 µM (inactive) | > 100 µM (inactive) | 83 µM (inactive) | > 100 µM (inactive) | > 100 µM (inactive) | > 100 µM (inactive) | > 100 µM (inactive) | > 100 µM (inactive)
10 | Cc1cc(N(CCC#N)CCC#N)ccc1/C=C(\NC(=O)/C=C/c1ccccc1)C(=O)Nc1ccc(Cl)cc1 | > 100 µM (inactive) | > 100 µM (inactive) | > 52.4 µM (inactive) | > 68.9 µM (inactive) | 7.62 µM (inactive) | > 100 µM (inactive) | > 100 µM (inactive) | 1.94 µM (inactive) | > 100 µM (inactive) | 14.2 µM (inactive) | 50.8 µM (inactive) | 5.6 µM (inactive) | 2.44 µM (inactive) | 3.74 µM (inactive) | 1.14 µM (inactive) | 1.07 µM (active) | > 69 µM (inactive) | 54.6 µM (inactive) | > 100 µM (inactive) | > 100 µM (inactive)
11 | CC(=O)OCc1ccc2oc(=O)c(C(=O)Oc3ccccc3)cc2c1 | 27.8 µM (inactive) | > 100 µM (inactive) | > 100 µM (inactive) | 44.6 µM (inactive) | > 100 µM (inactive) | > 100 µM (inactive) | 23.8 µM (inactive) | 61.9 µM (inactive) | > 100 µM (inactive) | > 100 µM (inactive) | > 100 µM (inactive) | 52.1 µM (inactive) | > 100 µM (inactive) | > 100 µM (inactive) | > 100 µM (inactive) | 30.4 µM (inactive) | > 100 µM (inactive) | > 100 µM (inactive) | > 100 µM (inactive) | 17.6 µM (inactive)
12 | NC1CC(=O)c2csc(Br)c21 (stereo not given) | 23.9 µM (inactive) | 16.6 µM (inactive) | 23.1 µM (inactive) | 17.2 µM (inactive) | 7.76 µM (inactive) | 17.4 µM (inactive) | 12.9 µM (inactive) | 12.9 µM (inactive) | 20.7 µM (inactive) | 17.2 µM (inactive) | 15.3 µM (inactive) | 4.39 µM (inactive) | 4.15 µM (inactive) | 12.2 µM (inactive) | 15.6 µM (inactive) | 16.5 µM (inactive) | 22.9 µM (inactive) | 14.4 µM (inactive) | > 64.6 µM (inactive) | 24 µM (inactive)
13 | O=CN(O)CC(=O)O | > 100 µM (inactive) | > 100 µM (inactive) | > 100 µM (inactive) | > 100 µM (inactive) | > 100 µM (inactive) | > 100 µM (inactive) | > 100 µM (inactive) | > 100 µM (inactive) | > 100 µM (inactive) | > 100 µM (inactive) | > 100 µM (inactive) | > 100 µM (inactive) | > 100 µM (inactive) | > 100 µM (inactive) | > 100 µM (inactive) | > 100 µM (inactive) | > 100 µM (inactive) | > 100 µM (inactive) | > 100 µM (inactive) | > 100 µM (inactive)
14 | O=C(O)/C=C(/CC(=O)O)C(=O)O | 21.3 µM (inactive) | 21.6 µM (inactive) | 14.1 µM (inactive) | 16 µM (inactive) | 20.9 µM (inactive) | 19.9 µM (inactive) | 23.2 µM (inactive) | 18.3 µM (inactive) | 19.9 µM (inactive) | 18.7 µM (inactive) | 15.7 µM (inactive) | 21 µM (inactive) | 13.6 µM (inactive) | 23.8 µM (inactive) | 22.7 µM (inactive) | 17.6 µM (inactive) | 21.6 µM (inactive) | 38.4 µM (inactive) | 21.5 µM (inactive) | 20.2 µM (inactive)
